# Assay results from patent publication US20240173389A1, “Compositions and Methods For Reducing Immune Intolerance” (LAPIX THERAPEUTICS, INC., priority 2021, published 2024).
# “Also recorded” adds a separate entry of the source.
# Assays:
# [1] = system: RAW264.7 mouse monocyte macrophage cells; experiment: SAR screen in RAW 264.7 cells with FVIII antigen, TGF-β ELISA (Example 5); assay type: cell-based; conditions: free compounds dosed in mM range
# Description: (§1) RAW264.7 mouse monocyte macrophage cells were exposed to an increasing concentration of selected compounds in the presence of human plasma-derived FVIII as a model antigen protein. TNF-α and TGF-β production were monitored.
# All molecules were formulated in RPMI media in aseptic conditions. The pH was adjusted to approximately 7.5 before dosing cells. 1,2-dimyristoyl-sn-glycero-3-phosphocholine (DM PC):PS liposomes were made at 70:30 molar ratio to make “PS” liposomes. The remaining liposomes were made by hydrating a DMPC lipid layer in PBS buffer containing a test compound to give a final molar ratio of 70:30 of DMPC:test compound.
# (§2) RAW 264.7 cells were prepared, cultured, and dosed. Cells were seeded at 4×10^5 cells/well. OPLS, OPLT and L-homocysteic acid (LHA) were dosed at 100, 85, 70, 60, 50, 30, 10, 3, 1, 0.3, 0.1, 0.03 and 0.01 mM, or at 100, 85, 70, 60, 50, 30, 10, 3 and 1 mM, as indicated. O-Benzyl-L-serine (OBLS), S-phenyl-L-cysteine (SPLC), S-benzyl-L-cysteine (SBLC) and OBLT were dosed at 100, 85, 70, 60, 50, 30, 10, 3, 1, 0.3, 0.1, 0.03, 0.01, 0.003 and 0.001 μM. Finally, 100 μl of 40 μg/ml of FVIII as a sample antigen was added to each cell. LPS and free protein were used as positive and baseline controls, respectively. TNF-α and TGF-β ELISA were conducted as per the manufacturer's instructions (R & D Systems).
# TLR3 = experiment: TNF-α production by splenocytes in response to TLR3 ligand poly(I:C); assay type: cell-based, C57BL/6 mice; conditions: for TNF-α mean: 48 hours, OPLT 1.85 μg/ml, dexamethasone 100 μg/ml, rapamycin 625 μg/ml
# Protocol: (§3) OPLT was dissolved in sterile PBS at 100 μM, and pH was adjusted to approximately 7.5. Splenocytes from naïve C57BL/6 mice were stained with CFSE, prepared, cultured, and dosed. Cells were seeded at 2×10^5 cells/well.
# (§4) To evaluate the effects of OPLT on cytokine production by splenocytes in response to different TLR ligands, splenocytes were incubated with one of the following TLR ligands in triplicate: PGN, LPS, ODN CPG, dsRNA, or ssRNA, as per group assignment. Cells were then treated as follows: • Control: No treatment; • OPLT: Cells were dosed with 1.85 μg/ml; • Dexamethasone: Cells were dosed with 100 μg/ml; • Rapamycin: Cells were dosed with 625 μg/ml. Cells were incubated for 48 hours before collecting the supernatant for TNF-α analysis.
# (§5) The supernatant was collected for TNF-α analysis by ELISA.
# TLR9 = experiment: TNF-α production by splenocytes in response to TLR9 ligand ODN CpG; assay type: cell-based, C57BL/6 mice; conditions: for TNF-α mean: 48 hours, OPLT 1.85 μg/ml, dexamethasone 100 μg/ml, rapamycin 625 μg/ml
# Protocol: as §3, §4, §5
# [2] = system: RAW264.7 mouse monocyte macrophage cells; experiment: SAR screen in RAW 264.7 cells with FVIII antigen, TNF-α ELISA (Example 5); assay type: cell-based; conditions: free compounds dosed in mM range, FVIII antigen
# Description: as §1
# All molecules were formulated in RPMI media in aseptic conditions. The pH was adjusted to approximately 7.5 before dosing cells. 1,2-dimyristoyl-sn-glycero-3-phosphocholine (DM PC):PS liposomes were made at 70:30 molar ratio to make “PS” liposomes.
# as §2
# B57BL6 Mice = experiment: Anti-GAA titer analysis in mice given GAA with OPLT or liposomal OBLT, then GAA re-challenge (Example 2); assay type: in vivo
# Protocol: OPLT and OBLT were dissolved in sterile PBS, and pH was adjusted to approximately 7.5. Liposomal OBLT was prepared using DMPC. GAA in PBS was used as a control. For the tolerance induction (or treatment) period, GAA was co-mixed with OPLT or liposomal OBLT, or diluted in PBS before administration as per group assignment for each animal. For the re-challenge protocol, GAA was administered IV alone to all animals regardless of group assignment. GAA was administered with 5 mg of OPLT SC QW. […] For all SC groups, GAA was dosed at 1 μg/injection (1 μg/week). For PO groups, GAA was dosed at 0.14 μg/dose QD (approximately 1 μg/week).
# The objective of the treatment phase was to test the ability of OPLT or liposomal OBLT to reduce the immunogenicity of GAA, as an antigen, compared to animals administered GAA alone. Animals were injected with GAA, GAA+OPLT, or GAA+liposomal OBTL SC QW for 4 weeks. Blood samples were collected for anti-GAA analysis after a one-week washout period from the last dose. For oral tolerance, animals were administered GAA or GAA+liposomal OBLT PO, QD for 4 weeks. GAA was also administered SC QW to both groups during the treatment period. Blood samples were collected for anti-GAA titer analysis after a one-week washout period from the last dose.
# The objective of the re-challenge phase of the study was to evaluate the duration of tolerance. […] After the washout period, animals were injected with (1 μg) GAA SC QW for 2 weeks. Blood samples were collected one week after each injection for anti-GAA titer analysis.
compound,measurement,setting,value
"N[C@@H](Cc1ccc(OP(=O)(O)O)cc1)C(=O)O [OPLT, O-phospho-L-tyrosine]",TGF-β production versus OPLS,[1],mimicked that of OPLS; also recorded: more potent inducers of TGF-β
same,TNF-α mean,TLR3; PolyI:C 0 ng/ml,0 pg/mL
same,TNF-α mean,"TLR3; PolyI:C 1 ng/ml, CTL 0",0 pg/mL
same,TNF-α mean,"TLR3; PolyI:C 10 ng/ml, CTL 109",0 pg/mL
same,TNF-α mean,"TLR3; PolyI:C 100 ng/ml, CTL 162",0 pg/mL
same,effect on splenocytes' TNF-α response to the TLR3 ligand poly(I:C) (in words),TLR3; compared to control at all doses,abrogated splenocytes' response to the TLR3 ligand poly(I:C)
same,TNF-α mean,TLR9; ODN CpG 0 ng/ml,0 pg/mL
same,TNF-α mean,"TLR9; ODN CpG 1 ng/ml, CTL 0",0 pg/mL
same,TNF-α mean,"TLR9; ODN CpG 10 ng/ml, CTL 338",0 pg/mL
same,TNF-α mean,"TLR9; ODN CpG 100 ng/ml, CTL 1220",1178 pg/mL
same,effect on splenocytes' TNF-α response to the TLR9 ligand ODN CpG (in words),TLR9; high dose of ODN CpG,did not
same,effect on splenocytes' TNF-α response to the TLR9 ligand ODN CpG (in words),"TLR9; mid-dose of ODN CpG, statistically significant",reduced splenocytes' response to mid-dose of the TLR9 ligand ODN CpG
same,TNF-α production (suppression) versus OPLS,[2],suppressed TNF-α production at a lower dose than OPLS; also recorded: more potent inhibitors of TNF-α
same,animals that developed anti-GAA titers,"B57BL6 Mice; SC QW 4 weeks, 5 mg OPLT + GAA 1 μg, after one-week washout, controls 6/6",4/6
same,anti-GAA titers versus control groups,"B57BL6 Mice; SC QW 4 weeks, OPLT 5 mg, liposomal OBLT 50 μM (1.3 μg OBLT/injection), after one-week washout",statistically lower than the controls and comparators
same,immune response to GAA re-challenge,"B57BL6 Mice; SC treatment group, weeks 1 and 2 of re-challenge, statistically significant at week 2 only",did not develop a robust immune response
